Measured values reported in patent US11911346B2, “Orally administrated therapeutic for treating mild cognitive impairment (MCI) and improving human cognitive function” (BrainCare LLC, priority 2021, dated 2024).

Tested on: cognitive function of participants with Subjective Cognitive Decline
Experiment: Cognitive Failures Questionnaire (CFQ), 8-week randomized study of one or two BCP capsules daily
Format: in vivo, human
Details: two capsules daily (180 mg BCP); for CFQ score: Do you bump into people? / CFQ score: Do you confuse left and right when giving people directions? / CFQ score: Do you daydream when you ought to be listening to something? / CFQ score: Do you fail to hear people speaking to you when you are doing something? / CFQ score: Do you fail to listen to people's names when you are meeting them for the first time? / CFQ score: Do you fail to notice signposts on the road? / CFQ score: Do you fail to see what you want in a supermarket (although it's there)? / CFQ score: Do you find that you drop things? / CFQ score: Do you find that you forget appointments? / CFQ score: Do you find you accidentally misplace things like placing the fruit in the cupboard and the bowl in the refrigerator? / CFQ score: Do you find you can't quite remember something although it's “on the tip of your tongue”? / CFQ score: Do you find you can't think of anything to say? / CFQ score: Do you find you forget people's names? / CFQ score: Do you find you forget what you came to the store to buy? / CFQ score: Do you find you forget whether you've turned off a light or locked the door? / CFQ score: Do you find you forget which way to turn on a road you know well but rarely use? / CFQ score: Do you find you forget why you went from one place of the house to the other? / CFQ score: Do you find yourself suddenly wondering if you used a word correctly? / CFQ score: Do you forget where you put something like a newspaper or a book? / CFQ score: Do you have trouble making up your mind? / CFQ score: Do you lose track of paying bills? / CFQ score: Do you lose your temper and regret it? / CFQ score: Do you read something and find you haven't been thinking about it and must read it again? / CFQ score: Do you say something and realize afterwards that it might be taken as an insult? / CFQ score: Do you start doing one thing at home and get distracted and do something else (unintentionally)? / Distractibility summed sub-score of CFQ / False triggering summed sub-score of CFQ / Forgetfulness summed sub-score of CFQ / Total CFQ summed sub-score: lower is better
[1] = week 4, listed as beta-caryophyllene
[2] = week 8, listed as beta-caryophyllene

## C=C1CC/C=C(\C)CC[C@@H]2[C@@H]1CC2(C)C [BCP, beta-caryophyllene]
Week 4
  CFQ % better vs. baseline: Do you find yourself suddenly wondering if you used a word correctly?: 29% better
  CFQ % better vs. baseline: Do you forget where you put something like a newspaper or a book?: 19%
  CFQ % better vs. baseline: Do you have trouble making up your mind?: 21% better
  CFQ % better vs. baseline: Do you lose track of paying bills?: 10% better
  CFQ % better vs. baseline: Do you lose your temper and regret it?: 26% better
  CFQ % better vs. baseline: Do you read something and find you haven't been thinking about it and must read it again?: 39%
  CFQ % better vs. baseline: Do you start doing one thing at home and get distracted and do something else (unintentionally)?: 30%
  CFQ change vs. baseline: Do you say something and realize afterwards that it might be taken as an insult?: No change
  Distractibility summed sub-score of CFQ, % better vs. baseline: 20%
  False triggering summed sub-score of CFQ, % better vs. baseline: 33%
  Forgetfulness summed sub-score of CFQ, % better vs. baseline: 27%
  Total CFQ summed sub-score, % better vs. baseline: 25%
  CFQ score: Do you bump into people?: 0.6 ± 0.8
  CFQ score: Do you confuse left and right when giving people directions?: 0.7 ± 0.8
  CFQ score: Do you daydream when you ought to be listening to something?: 1.3 ± 0.9
  CFQ score: Do you fail to hear people speaking to you when you are doing something?: 1.5 ± 1.1
  CFQ score: Do you fail to listen to people's names when you are meeting them for the first time?: 1.8 ± 1.2
  CFQ score: Do you fail to notice signposts on the road?: 0.7 ± 0.7
  CFQ score: Do you fail to see what you want in a supermarket (although it's there)?: 1.1 ± 1.0
  CFQ score: Do you find that you drop things?: 1.1 ± 0.7
  CFQ score: Do you find that you forget appointments?: 0.7 ± 0.8
  CFQ score: Do you find you accidentally misplace things like placing the fruit in the cupboard and the bowl in the refrigerator?: 0.7 ± 0.9
  CFQ score: Do you find you can't quite remember something although it's “on the tip of your tongue”?: 2.0 ± 1.0^
  CFQ score: Do you find you can't think of anything to say?: 0.8 ± 0.8
  CFQ score: Do you find you forget people's names?: 2.0 ± 0.9
  CFQ score: Do you find you forget what you came to the store to buy?: 1.0 ± 0.9
  CFQ score: Do you find you forget whether you've turned off a light or locked the door?: 1.1 ± 0.9
  CFQ score: Do you find you forget which way to turn on a road you know well but rarely use?: 0.6 ± 0.8
  CFQ score: Do you find you forget why you went from one place of the house to the other?: 1.4 ± 0.7^
  CFQ score: Do you find yourself suddenly wondering if you used a word correctly?: 1.0 ± 1.1
  CFQ score: Do you forget where you put something like a newspaper or a book?: 1.7 ± 0.9^
  CFQ score: Do you have trouble making up your mind?: 1.5 ± 1.1
  CFQ score: Do you lose track of paying bills?: 0.9 ± 1.0
  CFQ score: Do you lose your temper and regret it?: 1.1 ± 0.8
  CFQ score: Do you read something and find you haven't been thinking about it and must read it again?: 1.5 ± 0.9
  CFQ score: Do you say something and realize afterwards that it might be taken as an insult?: 1.4 ± 0.9
  CFQ score: Do you start doing one thing at home and get distracted and do something else (unintentionally)?: 1.9 ± 0.8
  Distractibility summed sub-score of CFQ: 10 ± 5
  False triggering summed sub-score of CFQ: 7 ± 4^
  Forgetfulness summed sub-score of CFQ: 12 ± 5^
  Total CFQ summed sub-score: 29 ± 14
[1]
  CFQ % better vs. baseline: Do you daydream when you ought to be listening to something?: 28% better
  CFQ % better vs. baseline: Do you find you can't quite remember something although it's “on the tip of your tongue”?: 20% better
  CFQ % better vs. baseline: Do you find you forget whether you've turned off a light or locked the door?: 45% better
  CFQ % better vs. baseline: Do you find you forget why you went from one place of the house to the other?: 39% better
  CFQ % better vs. baseline: Do you forget where you put something like a newspaper or a book?: 19% better
  CFQ % better vs. baseline: Do you read something and find you haven't been thinking about it and must read it again?: 39% better
  CFQ % better vs. baseline: Do you start doing one thing at home and get distracted and do something else (unintentionally)?: 30% better
  Distractibility summed sub-score of CFQ, % better vs. baseline: 20% better
  False triggering summed sub-score of CFQ, % better vs. baseline: 33% better
  Forgetfulness summed sub-score of CFQ, % better vs. baseline: 27% better
  Total CFQ summed sub-score, % better vs. baseline: 25% better
Week 8
  CFQ % better vs. baseline: Do you bump into people?: 29% better
  CFQ % better vs. baseline: Do you confuse left and right when giving people directions?: 22% better
  CFQ % better vs. baseline: Do you daydream when you ought to be listening to something?: 33%
  CFQ % better vs. baseline: Do you fail to hear people speaking to you when you are doing something?: 23% better
  CFQ % better vs. baseline: Do you fail to listen to people's names when you are meeting them for the first time?: 17% better
  CFQ % better vs. baseline: Do you fail to notice signposts on the road?: 20% better
  CFQ % better vs. baseline: Do you fail to see what you want in a supermarket (although it's there)?: 23% better
  CFQ % better vs. baseline: Do you find that you drop things?: 33% better
  CFQ % better vs. baseline: Do you find that you forget appointments?: 50% better
  CFQ % better vs. baseline: Do you find you accidentally misplace things like placing the fruit in the cupboard and the bowl in the refrigerator?: 63%
  CFQ % better vs. baseline: Do you find you can't quite remember something although it's “on the tip of your tongue”?: 12% better
  CFQ % better vs. baseline: Do you find you can't think of anything to say?: 27% better
  CFQ % better vs. baseline: Do you find you forget people's names?: 20% better
  CFQ % better vs. baseline: Do you find you forget what you came to the store to buy?: 27% better
  CFQ % better vs. baseline: Do you find you forget whether you've turned off a light or locked the door?: 40%
  CFQ % better vs. baseline: Do you find you forget which way to turn on a road you know well but rarely use?: 44% better
  CFQ % better vs. baseline: Do you find you forget why you went from one place of the house to the other?: 39%
  CFQ % better vs. baseline: Do you find yourself suddenly wondering if you used a word correctly?: 43% better
  CFQ % better vs. baseline: Do you forget where you put something like a newspaper or a book?: 29%
  CFQ % better vs. baseline: Do you have trouble making up your mind?: 26% better
  CFQ % better vs. baseline: Do you lose track of paying bills?: 30% better
  CFQ % better vs. baseline: Do you lose your temper and regret it?: 33% better
  CFQ % better vs. baseline: Do you read something and find you haven't been thinking about it and must read it again?: 39%
  CFQ % better vs. baseline: Do you say something and realize afterwards that it might be taken as an insult?: 14% better
  CFQ % better vs. baseline: Do you start doing one thing at home and get distracted and do something else (unintentionally)?: 30%
  Distractibility summed sub-score of CFQ, % better vs. baseline: 29%
  False triggering summed sub-score of CFQ, % better vs. baseline: 36%
  Forgetfulness summed sub-score of CFQ, % better vs. baseline: 27%
  Total CFQ summed sub-score, % better vs. baseline: 30%
  CFQ score: Do you bump into people?: 0.5 ± 0.6
  CFQ score: Do you confuse left and right when giving people directions?: 0.7 ± 0.8
  CFQ score: Do you daydream when you ought to be listening to something?: 1.2 ± 0.9
  CFQ score: Do you fail to hear people speaking to you when you are doing something?: 1.3 ± 1.1
  CFQ score: Do you fail to listen to people's names when you are meeting them for the first time?: 1.9 ± 1.1
  CFQ score: Do you fail to notice signposts on the road?: 0.8 ± 0.7
  CFQ score: Do you fail to see what you want in a supermarket (although it's there)?: 1.0 ± 0.8
  CFQ score: Do you find that you drop things?: 1.0 ± 0.7
  CFQ score: Do you find that you forget appointments?: 0.5 ± 0.5
  CFQ score: Do you find you accidentally misplace things like placing the fruit in the cupboard and the bowl in the refrigerator?: 0.3 ± 0.5
  CFQ score: Do you find you can't quite remember something although it's “on the tip of your tongue”?: 2.2 ± 0.8
  CFQ score: Do you find you can't think of anything to say?: 0.8 ± 0.7
  CFQ score: Do you find you forget people's names?: 2.0 ± 1.0
  CFQ score: Do you find you forget what you came to the store to buy?: 1.1 ± 0.9
  CFQ score: Do you find you forget whether you've turned off a light or locked the door?: 1.2 ± 0.7
  CFQ score: Do you find you forget which way to turn on a road you know well but rarely use?: 0.5 ± 0.6
  CFQ score: Do you find you forget why you went from one place of the house to the other?: 1.4 ± 0.8^
  CFQ score: Do you find yourself suddenly wondering if you used a word correctly?: 0.8 ± 0.9
  CFQ score: Do you forget where you put something like a newspaper or a book?: 1.5 ± 0.9^
  CFQ score: Do you have trouble making up your mind?: 1.4 ± 0.9
  CFQ score: Do you lose track of paying bills?: 0.7 ± 0.9
  CFQ score: Do you lose your temper and regret it?: 1.0 ± 0.7
  CFQ score: Do you read something and find you haven't been thinking about it and must read it again?: 1.4 ± 0.8
  CFQ score: Do you say something and realize afterwards that it might be taken as an insult?: 1.2 ± 0.7
  CFQ score: Do you start doing one thing at home and get distracted and do something else (unintentionally)?: 1.9 ± 0.7
  Distractibility summed sub-score of CFQ: 9 ± 4
  False triggering summed sub-score of CFQ: 7 ± 4^
  Forgetfulness summed sub-score of CFQ: 12 ± 5^
  Total CFQ summed sub-score: 27 ± 11
[2]
  CFQ % better vs. baseline: Do you daydream when you ought to be listening to something?: 33% better
  CFQ % better vs. baseline: Do you find you accidentally misplace things like placing the fruit in the cupboard and the bowl in the refrigerator?: 63% better
  CFQ % better vs. baseline: Do you find you forget whether you've turned off a light or locked the door?: 40% better
  CFQ % better vs. baseline: Do you find you forget why you went from one place of the house to the other?: 39% better
  CFQ % better vs. baseline: Do you forget where you put something like a newspaper or a book?: 29% better
  CFQ % better vs. baseline: Do you read something and find you haven't been thinking about it and must read it again?: 39% better
  CFQ % better vs. baseline: Do you start doing one thing at home and get distracted and do something else (unintentionally)?: 30% better
  Distractibility summed sub-score of CFQ, % better vs. baseline: 29% better
  False triggering summed sub-score of CFQ, % better vs. baseline: 36% better
  Forgetfulness summed sub-score of CFQ, % better vs. baseline: 27% better
  Total CFQ summed sub-score, % better vs. baseline: 30% better
